Test systems include EKVX; SF-295; HCT-116; SF-268; K562; HL-60; CCRF-CEM; LOX IMVI; OVCAR-5; A498; OVCAR-4; SK-OV-3; SK-MEL-2; SW-620; HCC 2998; IGROV-1; RPMI-8226.
What all share (assay): NCI-60 cell line screen, 48 h

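Five concentrations, 48 hours, 96-well plates. GI50: concentration for 50% inhibition of growth.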 Active and inactive are the calls of the source. Cut-off read from the data, not from the text of the source: active = GI50 up to about 1.1 µM and inactive = higher.

As for `Nc1nc[n+](Cc2ccccc2)c2ncn(Cc3ccccc3)c12`, the GI50 with EKVX was > 100 µM (inactive); in the test with SF-295 it was 63.8 µM (inactive); with HCT-116 it was 37.9 µM (inactive); in the test on SF-268, > 100 µM (inactive); in the test with K562 it was 37.7 µM (inactive); in the test on HL-60 it was 32.3 µM (inactive). The GI50 is > 100 µM (inactive) in the test with CCRF-CEM; > 100 µM (inactive) in the test with LOX IMVI; > 100 µM (inactive) in the test on OVCAR-5; 55.1 µM (inactive) with A498; > 100 µM (inactive) in the test on OVCAR-4; > 100 µM (inactive) in the test on SK-OV-3. Further, the GI50 in the test with SK-MEL-2 was > 100 µM (inactive); in the test on SW-620, > 100 µM (inactive); in the test with HCC 2998, 15.5 µM (inactive); with IGROV-1 it was > 100 µM (inactive).
In the case of `O=C(N/N=C(/c1nc2ccc([N+](=O)[O-])cc2[nH]c1=O)C(O)c1ccc([N+](=O)[O-])cc1)c1ccncc1` (stereo unspecified), the GI50 in the test with EKVX was > 100 µM (inactive); with SF-295 it was > 100 µM (inactive); in the test with HCT-116, > 100 µM (inactive); with SF-268, > 100 µM (inactive); in the test on K562, 23.1 µM (inactive); in the test on HL-60, 26.4 µM (inactive). The GI50 with CCRF-CEM is 16.3 µM (inactive); in the test on LOX IMVI, > 100 µM (inactive); with OVCAR-5, > 100 µM (inactive); in the test with A498, > 100 µM (inactive); in the test on OVCAR-4 it was > 100 µM (inactive); in the test with RPMI-8226 it was > 100 µM (inactive). Further, the GI50 in the test on SK-OV-3 is > 100 µM (inactive); in the test on SK-MEL-2 it was > 100 µM (inactive); with SW-620, > 100 µM (inactive); in the test with HCC 2998, 41.6 µM (inactive); with IGROV-1 it was > 100 µM (inactive).
With `COC(=O)/C(=N\N)C(C(=O)C(=O)Nc1nnc(S)[nH]1)c1nc2ccc([N+](=O)[O-])cc2nc1O` (stereo unspecified), the GI50 in the test on EKVX, in the test with SF-295, in the test with HCT-116, in the test with SF-268, with K562 and in the test with HL-60 was > 100 µM (inactive) throughout. Besides, the GI50 in the test on CCRF-CEM, in the test on LOX IMVI, in the test on OVCAR-5, in the test with A498, with OVCAR-4 and in the test on RPMI-8226 was > 100 µM (inactive) in each case. In addition, the GI50 with SK-OV-3, in the test on SK-MEL-2, in the test on SW-620, with HCC 2998 and in the test on IGROV-1 was > 100 µM (inactive) in each case.
Turning to `CO[C@@H]1C=C[C@@]23c4cc5c(cc4C(=O)O[C@H]2CN(C)[C@H]3C1)OCO5`, the GI50 with EKVX, with SF-295, in the test on HCT-116, in the test with SF-268, with K562 and in the test with HL-60 was > 100 µM (inactive) each time. For the same compound, the GI50 in the test with CCRF-CEM, in the test with LOX IMVI, in the test with OVCAR-5, in the test on A498, in the test with OVCAR-4 and with RPMI-8226 was > 100 µM (inactive) throughout. The GI50 with SK-OV-3, in the test on SK-MEL-2, with SW-620, in the test with HCC 2998 and with IGROV-1 was > 100 µM (inactive) each time.
Consider `C[N+](C)(C)CC(=O)N/N=C(/Cc1nc2ccc(Cl)cc2nc1O)C1=NS(=O)(=O)c2cc(S(N)(=O)=O)c(Cl)cc2N1`, for which the GI50 with EKVX is 6.75 µM (inactive); in the test on SF-295, > 100 µM (inactive); in the test with HCT-116, > 100 µM (inactive); with SF-268, > 100 µM (inactive); with K562, > 100 µM (inactive); in the test on HL-60, > 100 µM (inactive). Also, the GI50 in the test on CCRF-CEM, in the test with OVCAR-5, in the test with A498, in the test with OVCAR-4, with RPMI-8226 and in the test on SK-OV-3 was > 100 µM (inactive) each time. In addition, the GI50 in the test with SK-MEL-2, with SW-620, in the test with HCC 2998 and in the test with IGROV-1 was > 100 µM (inactive) in each case.
As to `CCOc1ccccc1NC(=O)C(=O)C(C(=O)c1ccc2ccccc2c1)C1OC(=O)c2ccccc21` (stereo unspecified), the GI50 was 22.2 µM (inactive) in the test with EKVX; 9.2 µM (inactive) with HCT-116; 5.86 µM (inactive) in the test on SF-268; 17.1 µM (inactive) in the test with K562; 10 µM (inactive) in the test on HL-60; 8.22 µM (inactive) in the test with CCRF-CEM. In addition, the GI50 with LOX IMVI was 12.5 µM (inactive); in the test with OVCAR-5, 21.2 µM (inactive); in the test on A498 it was 14.3 µM (inactive); with OVCAR-4, 4.61 µM (inactive); in the test with RPMI-8226 it was 6.08 µM (inactive); in the test on SK-OV-3, 15.4 µM (inactive). The GI50 in the test on SK-MEL-2 is 13.2 µM (inactive); in the test on SW-620 it was 6.31 µM (inactive); with HCC 2998, 10.7 µM (inactive); in the test on IGROV-1, 13 µM (inactive).
As for `COc1ccccc1OCC(COC(=O)Nc1ccc(C)cc1)OC(=O)Nc1ccc(C)cc1` (stereo unspecified), the GI50 is 25 µM (inactive) with EKVX; 21.9 µM (inactive) with SF-295; 17.5 µM (inactive) in the test with HCT-116; 19.5 µM (inactive) in the test on SF-268; 18.5 µM (inactive) in the test on K562; 15 µM (inactive) in the test on HL-60. Also, the GI50 in the test with CCRF-CEM was 18.2 µM (inactive); in the test on LOX IMVI, 15.8 µM (inactive); in the test on OVCAR-5, 21.8 µM (inactive); with A498 it was > 100 µM (inactive); in the test with RPMI-8226, 16.3 µM (inactive); with SK-OV-3, 24.7 µM (inactive). Also, the GI50 in the test on SK-MEL-2 was 13.8 µM (inactive); with SW-620 it was 14.9 µM (inactive); in the test on HCC 2998, 20.6 µM (inactive); in the test on IGROV-1 it was 26 µM (inactive).
As for `[O-][n+]1c2cc(CBr)c(CBr)cc2[n+]([O-])c2c(O)cccc21`, the GI50 in the test on EKVX was 6.05 µM (inactive); with SF-295 it was 1.84 µM (inactive); in the test on HCT-116, 1.53 µM (inactive); in the test with SF-268 it was 2.84 µM (inactive); in the test with K562, 1.22 µM (inactive); in the test on HL-60, 0.388 µM (active). The GI50 in the test with CCRF-CEM is 0.265 µM (active); with LOX IMVI, 1.35 µM (inactive); with OVCAR-5, 1.95 µM (inactive); in the test on A498, 12.5 µM (inactive); in the test on OVCAR-4, 1.8 µM (inactive); in the test on RPMI-8226, 1.53 µM (inactive). The GI50 in the test on SK-OV-3 was 4.86 µM (inactive); with SK-MEL-2, 2.22 µM (inactive); in the test with SW-620 it was 1.56 µM (inactive); in the test with IGROV-1 it was 4.02 µM (inactive).
As to `c1ccc(SC(CCCCC(Sc2ccccc2)Sc2ccccc2)Sc2ccccc2)cc1`, the GI50 in the test on EKVX, in the test on SF-295, with HCT-116, with SF-268, in the test with K562 and in the test with HL-60 was > 100 µM (inactive) each time. Moreover, the GI50 in the test with CCRF-CEM, in the test on LOX IMVI, in the test with A498, in the test on OVCAR-4, in the test on RPMI-8226 and in the test with SK-OV-3 was > 100 µM (inactive) throughout. The GI50 in the test on SK-MEL-2, in the test on SW-620 and in the test on HCC 2998 was > 100 µM (inactive) throughout.
Regarding `Cc1ccc(NC(=O)C(=O)C(C(=O)/C=C/c2ccccc2)C2OC(=O)c3ccccc32)c(C)c1` (stereo unspecified), the GI50 with EKVX was > 100 µM (inactive); in the test with SF-295, > 100 µM (inactive); in the test on HCT-116, > 100 µM (inactive); in the test on SF-268, > 100 µM (inactive); in the test with K562, 85.7 µM (inactive); in the test with HL-60 it was > 100 µM (inactive). The GI50 was > 100 µM (inactive) in the test on CCRF-CEM; > 100 µM (inactive) in the test on LOX IMVI; > 100 µM (inactive) in the test with OVCAR-5; > 100 µM (inactive) in the test with A498; > 100 µM (inactive) in the test with OVCAR-4; 60.4 µM (inactive) in the test with RPMI-8226. Besides, the GI50 in the test with SK-OV-3, with SW-620, in the test with HCC 2998 and with IGROV-1 was > 100 µM (inactive) each time.
Regarding `O=[N+]([O-])c1ccc(C2CC(c3ccccc3Cl)=Nc3ccccc3S2)cc1` (stereo unspecified), the GI50 is 14.5 µM (inactive) in the test with EKVX; 7.5 µM (inactive) with SF-295; 1.96 µM (inactive) in the test on HCT-116; 4.15 µM (inactive) in the test on SF-268; 1.75 µM (inactive) in the test on K562; 2.01 µM (inactive) with HL-60. Moreover, the GI50 in the test with CCRF-CEM was 2.07 µM (inactive); with LOX IMVI, 3.7 µM (inactive); in the test on OVCAR-5 it was 12.9 µM (inactive); with A498 it was 1.87 µM (inactive); in the test with OVCAR-4, 9.84 µM (inactive); in the test with RPMI-8226, 1.66 µM (inactive). Further, the GI50 in the test on SK-OV-3 is 29 µM (inactive); in the test on SK-MEL-2, 11.7 µM (inactive); in the test on SW-620, 1.78 µM (inactive); in the test with HCC 2998, 23.9 µM (inactive); with IGROV-1, 7.23 µM (inactive).
For the compound `CC1/C=C/[C@@]2(C)CCC(C(C)(C)O)C2C(O)C[C@](C)(O)/C=C/C1` (stereo partly specified), the GI50 with EKVX is > 100 µM (inactive); in the test on SF-295 it was > 100 µM (inactive); in the test with HCT-116, > 100 µM (inactive); in the test with SF-268, > 100 µM (inactive); in the test on K562, 65.9 µM (inactive); in the test on HL-60 it was 86.1 µM (inactive). Moreover, the GI50 with CCRF-CEM, in the test on LOX IMVI, with OVCAR-5, in the test on A498, in the test on OVCAR-4 and in the test on RPMI-8226 was > 100 µM (inactive) throughout. Besides, the GI50 in the test with SK-OV-3, in the test on SK-MEL-2, with SW-620, in the test with HCC 2998 and with IGROV-1 was > 100 µM (inactive) throughout.
